Data: Sander's compilation of Henry's law constants
One block for each compound: values may come before it.

Key:
[1] = Henry solubility constant Hcp at 293 K (mol/(m3 Pa))
[2] = Henry solubility constant Hcp at 298.15 K (mol/(m3 Pa))
[3] = reference: Chiang et al. (1998)
[4] = reference: Pearson and McConnell (1975)
[5] = reference: Yurteri et al. (1987)
[6] = reference: Bissonette et al. (1990)
[7] = reference: Gossett et al. (1985)
[8] = reference: Lincoff and Gossett (1984)
[9] = reference: Munz and Roberts (1987)
[10] = reference: Robbins et al. (1993)
[11] = reference: Vane and Giroux (2000)
[12] = reference: Warner et al. (1980)
[13] = reference: De Maagd et al. (1998)
[14] = reference: Sheikheldin et al. (2001)
[15] = reference: Wolfenden and Williams (1983)

Structure (SMILES): ClC(Cl)=C(Cl)Cl [tetrachloroethene]
Henry solubility constant Hcp at 293 K [1, 3]: 0.00062
Henry solubility constant Hcp at 293 K [1, 4]: 0.0005
Henry solubility constant Hcp at 293 K [1, 5]: 0.00075
Henry solubility constant Hcp [2, 6]: 0.00062
Henry solubility constant Hcp ([2]; reference: Chen et al. (2012)): 0.00062
Henry solubility constant Hcp ([2]; reference: Ervin et al. (1980)): 0.00057
Henry solubility constant Hcp ([2]; reference: Gossett (1980)): 0.0011
Henry solubility constant Hcp ([2]; reference: Gossett (1987)): 0.00056
Henry solubility constant Hcp [2, 7]: 0.00065
Henry solubility constant Hcp ([2]; reference: Knauss et al. (2000)): 0.00048
Henry solubility constant Hcp [2, 8]: 0.00057
Henry solubility constant Hcp [2, 9]: 0.00054
Henry solubility constant Hcp ([2]; reference: Park et al. (1997)): 0.00055
Henry solubility constant Hcp ([2]; reference: Peng and Wan (1997)): 0.00061
Henry solubility constant Hcp ([2]; reference: Peng and Wan (1998)): 0.00078
Henry solubility constant Hcp [2, 10]: 0.00058
Henry solubility constant Hcp ([2]; reference: Shimotori and Arnold (2003)): 0.00058
Henry solubility constant Hcp ([2]; reference: Tancrède and Yanagisawa (1990)): 0.00059
Henry solubility constant Hcp [2, 11]: 0.0006
Henry solubility constant Hcp [2, 12]: 0.00034

Structure (SMILES): C=C(Cl)Cl [1,1-dichloroethene]
Henry solubility constant Hcp at 293 K [1, 3]: 0.00044
Henry solubility constant Hcp at 293 K [1, 4]: 6.6e-05
Henry solubility constant Hcp at 293 K [1, 5]: 0.00013
Henry solubility constant Hcp [2, 6]: 0.00034
Henry solubility constant Hcp ([2]; reference: Ervin et al. (1980)): 0.00014
Henry solubility constant Hcp ([2]; reference: Gossett (1987)): 0.00038
Henry solubility constant Hcp [2, 12]: 0.00066

Structure (SMILES): CCc1cccc(C)c1N(C(=O)CCl)C(C)COC (configuration not stated) [metolachlor]
Henry solubility constant Hcp at 293 K ([1]; reference: Rice et al. (1997b)): 130
Henry solubility constant Hcp ([2]; reference: Feigenbrugel et al. (2004a)): 210
Henry solubility constant Hcp ([2]; reference: Lau et al. (1995)): 570

Structure (SMILES): Cc1ccc2ccccc2c1 [2-methylnaphthalene]
Henry solubility constant Hcp at 293 K [1, 13]: 0.022

Henry solubility constant Hcp at 293 K [1, 14]: 9.3
Henry solubility constant Hcp ([2]; reference: Dohnal and Fenclová (1995)): 10
Structure (SMILES): Cc1cccc(O)c1C [1-hydroxy-2,3-dimethylbenzene]

Structure (SMILES): Oc1ccccc1Cl [2-hydroxychlorobenzene]
Henry solubility constant Hcp at 293 K [1, 14]: 1.5
Henry solubility constant Hcp ([2]; reference: Tabai et al. (1997)): 3.6

Structure (SMILES): c1ccc2c(c1)-c1cccc3cccc-2c13 [benzo[jk]fluorene]
Henry solubility constant Hcp at 293 K [1, 13]: 0.91

Structure (SMILES): CCCOP(=O)(OCCC)OCCC [tripropyl phosphate]
Henry solubility constant Hcp at 293 K [1, 15]: 15

Structure (SMILES): OO [hydrogen peroxide]
Henry solubility constant Hcp at 293 K ([1]; reference: Yoshizumi et al. (1984)): 1400
Henry solubility constant Hcp ([2]; reference: Huang and Chen (2010)): 1100
Henry solubility constant Hcp ([2]; reference: Hwang and Dasgupta (1985)): 670
Henry solubility constant Hcp ([2]; reference: Lind and Kok (1994)): 990
Henry solubility constant Hcp ([2]; reference: O’Sullivan et al. (1996)): 820
Henry solubility constant Hcp ([2]; reference: Rivera-Rios (2018)): 1200
Henry solubility constant Hcp ([2]; reference: Zhou and Lee (1992)): 850

Structure (SMILES): Oc1ccc(Cl)cc1Cl [2,4-dichlorophenol]
Henry solubility constant Hcp at 293 K [1, 14]: 3.4
Henry solubility constant Hcp ([2]; reference: Tabai et al. (1997)): 6.6

Structure (SMILES): CC(Cl)(Cl)Cl [1,1,1-trichloroethane]
Henry solubility constant Hcp at 293 K [1, 3]: 0.00071
Henry solubility constant Hcp at 293 K [1, 4]: 0.00029
Henry solubility constant Hcp at 293 K [1, 5]: 0.00063
Henry solubility constant Hcp [2, 6]: 0.00051
Henry solubility constant Hcp ([2]; reference: Chen et al. (2012)): 0.00054
Henry solubility constant Hcp ([2]; reference: Ervin et al. (1980)): 0.00027
Henry solubility constant Hcp ([2]; reference: Gossett (1987)): 0.00059
Henry solubility constant Hcp [2, 7]: 0.00057
Henry solubility constant Hcp ([2]; reference: Hunter-Smith et al. (1983)): 0.00076
Henry solubility constant Hcp [2, 8]: 0.00059
Henry solubility constant Hcp [2, 9]: 0.00058
Henry solubility constant Hcp [2, 10]: 0.00055
Henry solubility constant Hcp ([2]; reference: Turner et al. (1996)): 0.00048
Henry solubility constant Hcp [2, 11]: 0.00062
Henry solubility constant Hcp [2, 12]: 0.002

Structure (SMILES): OCCO [1,2-ethanediol]
Henry solubility constant Hcp at 293 K ([1]; reference: Bone et al. (1983)): 4000
Henry solubility constant Hcp ([2]; reference: Butler and Ramchandani (1935)): 160

Structure (SMILES): FC(F)(Cl)Cl [dichlorodifluoromethane]
Henry solubility constant Hcp at 293 K [1, 4]: 2.5e-05
Henry solubility constant Hcp [2, 9]: 3.1e-05
Henry solubility constant Hcp ([2]; reference: Park et al. (1982)): 2.9e-05
Henry solubility constant Hcp ([2]; reference: Reichl (1995)): 3e-05
Henry solubility constant Hcp ([2]; reference: Scharlin and Battino (1994)): 2.9e-05
Henry solubility constant Hcp ([2]; reference: Scharlin and Battino (1995)): 2.9e-05
Henry solubility constant Hcp ([2]; reference: Warner and Weiss (1985)): 2.9e-05

Structure (SMILES): c1ccc2c(c1)Cc1ccccc1-2 [2,3-benzindene]
Henry solubility constant Hcp at 293 K [1, 13]: 0.15
Henry solubility constant Hcp ([2]; reference: Bamford et al. (1999b)): 0.079
Henry solubility constant Hcp [2, 12]: 0.084

Structure (SMILES): CCOP(=O)(OCC)OCC [triethylphosphate]
Henry solubility constant Hcp at 293 K [1, 15]: 270

Structure (SMILES): ClC(Cl)=C(Cl)C(Cl)=C(Cl)Cl [hexachlorobutadiene]
Henry solubility constant Hcp at 293 K [1, 4]: 0.0004
Henry solubility constant Hcp [2, 12]: 0.00096

Structure (SMILES): CC(C)C(=O)OO[N+](=O)[O-] [peroxy-isobutyryl nitrate]
Henry solubility constant Hcp at 293 K ([1]; reference: Kames and Schurath (1995)): 0.0099
